The source of these data is patent publication US9849134B2, “Method of improving cognition and social behavior in humans having deficits therein due to neurodegenerative disorders and compounds and compositions therefor” (The Board of Trustees of the Leland Stanford Junior …, priority 2014, dated 2017).

A short description of data set [1]: Xamoterol concentration in plasma and brain after s.c. injection. The data set is classed as in vivo. Conditions: mice; for concentration at 30 min / concentration at 1 h / concentration at 2 h: C57Bl/6, mouse, sc, 3 mg/kg s.c. How it is done:
Mice are euthanized at 3, 15, 30, 60, 120, 240 and 360 minutes after drug administration. Blood is drawn by cardiac puncture and collected in heparinized tubes. Plasma is immediately separated by centrifugation and stored at −80° C. until assay. For tissue distribution studies, tissue samples from the brain, heart, kidney, liver and spleen are collected 60 and 120 minutes after drug administration. The tissue samples are homogenized using 0.9% saline at a ratio of 1:2. The homogenates are stored at −80° C. until analysis. […] 2(2): p.

Data set [2] relates to β-arrestin pathway. Nature of the data set: β-arrestin pathway activation. The class given is cell-based.
For data set [3], the system named is Thy1-hAPP^Lond/Swe+ mice (APP). Nature of the data set: Social recognition test in APP mouse model of AD. The class given is in vivo. On the procedure: (§1) Behavioral testing. […] Drug treatment. […] Betaxolol was injected sub-cutaneously (1 mg/kg) or in the MeA (30 nmole/side). PKI 14-22 amide was dissolved in 30% acetonitrile and injected in the MeA (2.75 nmole/side).

The subject of data set [4] is pCREB. In words: Western blot of pCREB in C57B1/6 mice. The data set is classed as in vivo. On the procedure:
(§2) Molecular analyses. Immunohistochemistry was used to assess c-Fos, tyrosine hydroxylase (TH) and β1-ADR. The quantitative analysis of stained cells was done in different brain regions according to the Mouse Brain Atlas. Cell counting was achieved using the unbiased-stereologic method. The total number of positive cells was quantified with the optical fractionator method using the StereoInvestigator software (MBF Bioscience, Williston, Vt., USA). The counting criteria were determined so as to obtain a mean coefficient of error ≦0.10. Analysis of pCREB was performed by western blot.
We then tested whether pharmacological modulation of β1-ADR affects CREB phosphorylation in the MeA in the context of social learning.
(In general: In western blotting, separated proteins are transferred to a membrane and probed.)

Data set [5] has as its system pCREB. Nature of the data set: Western blot of pCREB in medial amygdala of APP mice and WT controls. The data set is classed as in vivo. On the procedure: as §2, with “Immunohistochemistry was used to assess c-Fos, tyrosine hydroxylase (TH) and β1-ADR.” left out, “blot. […] It was reported that in Alzheimer's disease several phosphorylated proteins and transcription factors are preferentially located in the cytoplasm (vs. the nucleus) and are thus inefficient in inducing expression of genes important for learning and memory.” for “blot.”

The subject of data set [6] is Thy1-APP^Lond/Swe+ mice. In words: Working memory in Thy1-APP^Lond/Swe+ mice. The class given is in vivo. To be noted: acute s.c. 3 mg/kg.
Data set [7] relates to 5xFAD mice. In words: Chronic dosing in 5xFAD mouse model of AD (memory, Morris-Water Maze, microglia, plaques). The class given is in vivo.
The test system of data set [8] is wild type mice. In words: Cardiac safety after chronic treatment in wild type mice. To be noted: 3 months. The data set is classed as in vivo.
In data set [9] the test system is Thy1-hAPP^Lond/Swe+ line transgenic mice. In words: Activity chamber test (locomotor activity) in Thy1-hAPP^Lond/Swe+ mice. Conditions: 0.3 and 1 mg/kg s.c., chronic, after 1 month. The class given is in vivo.
The test system is the same in data set [10]. In words: Fear conditioning test in Thy1-hAPP^Lond/Swe+ mice. The class given is in vivo. Conditions: 0.3 and 1 mg/kg s.c., chronic, after 2.5 months.
In data set [11] the test system is humans with heart failure. Conditions: 200 mg twice daily for 2-12 months; cited from earlier work.
The subject of data set [12] is mice and rats. To be noted: cited from earlier work.
Data set [13] has as its system C57B1/6 mice. Nature of the data set: Social recognition tests (in-home cage social discrimination, 3-chamber) in C57B1/6 mice. The class given is in vivo. On the procedure: as §1
Data set [14] deals with β2-ADR KO mice. To be noted: 3 mg/kg. How it is done: (§3) Behavioral testing. Social recognition was tested in two different tests: the 3-chamber social test developed by Nadler et al and the in-home cage social discrimination task developed by Macbeth et al. To differentiate between social recognition and recognition of non-social odors/objects non-social odor discrimination tests (olfactory habituation/dishabituation and olfactory recognition test) and an object recognition test were used.

Data set [15] relates to C57B1/6 mice. On the procedure:
as §3
We assessed the ability of C57B1/6 mice to recognize a previously-met conspecific after an acute subcutaneous injection of various doses of a selective β1-ADR antagonist, betaxolol (0.01, 0.1 and 1 mg/kg).

Data set [16] deals with c-Fos. On the procedure:
as §2
Brain regions involved in social recognition have already been defined. Among them are the lateral septum, prefrontal cortex and MeA. […] We used c-Fos as a marker of neuronal activity and compared its expression in a group of C57B1/6 mice after social learning with a group of mice after both social learning and social recognition.

Data set [17] relates to C57BI/6 mice. To be noted: single dose 1 mg/kg.
Where [18] appears, read: 1 mg/kg, 20 minutes prior to learning phase.

Entries after “also recorded” stand apart in the source; their conditions may differ. Structures can show the parent of a compound that is named as a salt. Where two headings read alike, the source gives them in different places. * marks the point of attachment. Myristoyl = CCCCCCCCCCCCCC(=O)*

`O=C(NCCNCC(O)COc1ccc(O)cc1)N1CCOCC1` (racemic) [xamoterol, 1-p-Hydroxyphenoxy-3-beta-(morpholinocarbonamido)ethyl-amino-2-propanol hydrogen fumarate]: in data set [1] (brain, read-out: Brain), the concentration at 30 min worked out at 168 ± 6.4 ng/mL, the concentration at 1 h worked out at 116 ± 9.1 ng/mL and the concentration at 2 h is 125 ± 7.4 ng/mL. Moreover, in data set [1] (plasma, read-out: Plasma), the concentration at 30 min came out at 274 ± 75.9 ng/mL, the concentration at 1 h was 45.1 ± 6.1 ng/mL and the concentration at 2 h turned out to be 4.7 ± 0.7 ng/mL. Also, the “Passage of the BBB” value in [1] is “passes the BBB and reach the central nervous system”. In data set [2], the “Effect on β-arrestin pathway” value is on record as “no effect on the β-arrestin pathway”. Further, the “Social recognition deficit of APP mice” value in data set [3] (3 mg/kg systemic (s.c.), acute, prior to testing) is “rescued the social recognition deficit”. Besides, the “Preference for unfamiliar intruder over empty cup” value in [3] (3 mg/kg, WT and APP mice) was “did not affect the preference”. For the same molecule, the “pCREB expression in mice brain” value in [4] (3 mg/kg s.c., after 15 minutes) is given as “significant increase of pCREB”. Moreover, in data set [4] (3 mg/kg, 5 min after injection), the “pCREB expression in MeA vs baseline” value is recorded as “increased”. For the same molecule, in data set [5] (APP mice), the “Total pCREB in MeA of APP mice after social learning” value is recorded as “no significant increase”. Besides, the “pCREB in MeA of WT littermates after social learning” value in data set [5] (WT animals) is “induced an increase in pCREB”. Further, in [5] (injection prior to social learning, nuclear fraction), the “Nuclear pCREB level in medial amygdala of APP mice” value is “significantly higher”. Also, in data set [6], the Working memory deficit entry was “rescued; also recorded: rescues working memory and social recognition deficits”. Also, in data set [7], the “Activated microglia and Aβ plaque clearance” value is “increased activated microglia and Aβ plaque clearance”; the “Performance in the Morris-Water Maze (escape latency, time in thigmotaxis)” value is given as “improved”. In [7] (daily oral 6 mg/kg over 3 months, 6 mg/kg), the Declarative memory deficit result is “rescued; also recorded: rescues the declarative and spatial memory deficits”. Moreover, in [8] (3 mg/kg s.c., vs vehicle), the “Cardiovascular functions (BP, heart rate, EF, FS, HW/BW)” value is recorded as “did not develop pathological changes in cardiac functions; also recorded: did not show significant difference in cardiovascular functions” and the Myocardial fibrosis result is reported as “did not induce cardiac fibrosis; also recorded: did not show significant difference”. Moreover, in [8] (3 mg/kg, s.c.), the “Myocardial structure (Masson's trichrome staining)” value was “did not produce changes in myocardial structure”. Moreover, in [9], the “Hyperactivity phenotype (locomotor activity)” value is “dose-dependent reversal of hyperactivity phenotype”. Besides, the “Cognitive functioning (fear conditioning test)” value in [10] is listed as “dose-dependent improvement in cognitive functioning”. Further, the “Side effects of chronic treatment in humans” value in data set [11] was “without any significant side effects”. In addition, the “Retrieval deficit in mice with NA deficiency” value in data set [12] (mice with NA deficiency) was “can be rescued”.
As for `CC(C)NCC(O)COc1ccc(CCOCC2CC2)cc1` (stereo not drawn) [betaxolol], in data set [13] (30 nmole in the MeA), the “Social recognition after injection in the MeA” value is given as “impairs social recognition”. The “Social recognition: preference for novel intruder over familiar one” value (“Social recognition … over familiar one” for short) in [13] (0.01 mg/kg s.c.) is “showed this preference”. Moreover, the “Social recognition … over familiar one” value in [13] (0.1 mg/kg s.c.) is reported as “did not show a preference”. The “Social recognition … over familiar one” value in data set [13] (1 mg/kg s.c.) is on record as “did not show a preference”. Also, in [13] (setting [18]), the “Long-term social memory, 24 hours after learning phase” value was “impaired long-term social memory” and the “Short term social recognition, dosing before learning phase” value is reported as “impaired short term social recognition”. Moreover, the “Social recognition, dosing before retrieval phase” value in [13] (1 mg/kg, 30 minutes prior to retrieval phase) was “did not impair social recognition”. The “Social recognition in 3-chamber test” value in data set [13] (1 mg/kg, systemic injection prior to learning phase) is “impairs social recognition”. For the same molecule, in data set [13] (0.01 to 1 mg/kg), the “Social learning: preference for unfamiliar mouse over empty cup” value was “did not affect social learning”. In [14], the “Social recognition in β2-ADR KO mice” value is “effectively impaired social recognition abilities”. Also, in [15] (1 mg/kg), the “Ability to recognize a familiar odor or object over a new one” value is “not affected”; the “Non-social odor habituation, dishabituation and recognition” value is reported as “did not impair non-social odor recognition”. The “Non-social odor recognition (heptanol / heptanol:octanol)” value in [15] (betaxolol vs vehicle) is “did not impair non-social order recognition”. Also, the “Number of c-Fos positive cells in the MeA” value in data set [16] (1 mg/kg prior to social recognition task) was “decreased the number of c-Fos positive cells in the MeA”. Moreover, the “Number of c-Fos positive cells in the thalamus (PV)” value in data set [16] (injection prior to social recognition task) is “did not affect the number of c-Fos positive cells in the thalamus”. Also, the “Percent of β1-ADR cells expressing c-Fos in MeA” value in [16] (vs vehicle-injected mice) is given as “significantly reduced”. Also, the “pCREB expression in MeA after 5 minutes of social interaction” value in data set [4] (1 mg/kg, 60 minutes before social learning) was “significantly decreased”. In addition, the Contextual memory result in data set [17] is given as “impairment of contextual memory”. In data set [12] (wild-type mice and rats), the Spatial navigation retrieval result is recorded as “produces spatial navigation retrieval deficit”.
As to `CC(C)NCC(O)c1ccc(O)c(O)c1` (stereo not drawn) [isoprenaline], the “Effect on β-arrestin pathway” value in data set [2] was “activates both cAMP and β-arrestin pathways”.
Take “PKI 14-22 amide myristoylated (Myristoyl-SGRTGRRNA-NH2; SMILES CCCCCCCCCCCCCC(=O)N[C@@H](CO)C(=O)NCC(=O)N[C@@H](CCCNC(=N)N)C(=O)N[C@H](C(=O)NCC(=O)N[C@@H](CCCNC(=N)N)C(=O)N[C@@H](CCCNC(=N)N)C(=O)N[C@@H](CC(N)=O)C(=O)N[C@@H](C)C(N)=O)[C@@H](C)O; UniProt P61925 14-22, looked up, fragment) [PKA inhibitor]”: in data set [13] (2.75 nmole in the MeA), the “Preference for unfamiliar conspecific over empty cup after injection in the MeA” value is recorded as “did not affect”; the “Social recognition after injection in the MeA” value was “impaired the ability of mice to recognize between a new and familiar conspecific”.
